For series [1], the system named is Huh-7. Kind of series: Cytotoxicity against human Huh-7 cells assessed as inhibition of cell growth measured after 24 hrs by MTT assay. Type of series: functional, cell-based. The following applies: Huh-7, 24 h. For orientation: Formazan colour is commonly taken as a measure of viable cells.
Series [2] is described as follows: Resistance factor, ratio of IC50 for cisplatin-resistant human A549 cells to IC50 for human A549 cells. Type of series: functional.
In series [3] the test system is A549. The experiment in a line: Cytotoxicity against human A549 cells assessed as inhibition of cell growth incubated for 48 hrs by MTT assay. In kind it is functional, cell-based. The following applies: A549, 48 h.
A short description of series [4]: Antitumor activity against human HCC cells xenografted in BALB/c mouse assessed as inhibition of tumor weight at 5 mg/kg, iv administered once daily for 7 days. To be noted: 168 h, time 7 day. In kind it is functional. In general terms: A xenograft is tissue or cells of one species grown in another, often human tumour cells in immunodeficient mice.
Series [5] relates to Huh-7. Kind of series: Cytotoxicity against human Huh-7 cells assessed as inhibition of cell growth incubated for 48 hrs by MTT assay. In kind it is functional, cell-based. The following applies: Huh-7, 48 h.
Series [6] is described as follows: Selectivity index, ratio of IC50 for human HL7702 cells to IC50 for human Huh-7 cells. In kind it is toxicity. The following applies: HL7702 cells and Huh-7 cells, read-out: Ratio IC50.
Another series has as its system MDA-MB-231. The experiment in a line: Cytotoxicity against human MDA-MB-231 cells assessed as inhibition of cell growth incubated for 48 hrs by MTT assay. In kind it is functional, cell-based. The following applies: MDA-MB-231, 48 h.
A further series has as its system MCF7. Kind of series: Cytotoxicity against human MCF7 cells assessed as inhibition of cell growth incubated for 48 hrs by MTT assay. In kind it is functional, cell-based. To be noted: MCF7, 48 h.
Series [7] in a line: Antimetastatic activity against human HCC cells xenografted in BALB/c mouse assessed as reduction lung metastatic nodules at 5 mg/kg, iv administered once every 2 days for 14 days. Type of series: functional. The following applies: 336 h, time 14 day.
In another series the test system is L02. The experiment in a line: Cytotoxicity against human HL7702 cells assessed as inhibition of cell growth measured after 24 hrs by MTT assay. In kind it is cell-based. To be noted: L02, 24 h.
The subject of series [8] is A549. The experiment in a line: Cytotoxicity against cisplatin-resistant human A549 cells assessed as inhibition of cell growth incubated for 48 hrs by MTT assay. Type of series: functional, cell-based. The following applies: A549, 48 h.
Series [9] is described as follows: Selectivity index, ratio of IC50 for human HL7702 cells to IC50 for human HepG2 cells. In kind it is toxicity. To be noted: HL7702 cells and HepG2 cells, read-out: Ratio IC50.
The next series concerns HepG2. The experiment in a line: Cytotoxicity against human HepG2 cells assessed as inhibition of cell growth incubated for 48 hrs by MTT assay. In kind it is functional, cell-based. The following applies: HepG2, 48 h.

As a reminder, the IC50 is the midpoint of a concentration-inhibition curve. A word on the inhibition in vivo: it is the percentage by which the read-out fell short of the control. Turning to `CN(C)CCN1C(=O)c2cccc3cc(N)cc(c23)C1=O` [AMONAFIDE], the IC50 is 8.52 µM in the series on Huh-7 [1]; 23.5 µM in the series on A549 [3]; 8.52 µM in the series on Huh-7 [5]; 15.2 µM with MDA-MB-231; 10.9 µM with MCF7; 11.6 µM with L02. The half-maximal inhibitory concentration (IC50) in the series with A549 [8] is 9.56 µM. In [2], the “Ratio IC50” value is 0.41. The inhibition in vivo at 5 mg/kg is 46.9% in [4] and 55.8% in [7]. For the same molecule, the selectivity ratio amounted to 1.36 in series [6] and 1.23 in series [9].
Consider `NCCCCNCCCCN1C(=O)c2cccc3c(NC(=O)CN)ccc(c23)C1=O`, for which the IC50 in the series on HepG2 was above 30 µM; in the series with A549 [3] it was above 30 µM; in the series on Huh-7 [5] it was 22.9 µM; in the series with MDA-MB-231, above 30 µM; in the series with MCF7, above 30 µM; in the series with A549 [8], above 30 µM.
For `CN(C)CCN1C(=O)c2cccc3cc(NC(=O)CN)cc(c23)C1=O`, the IC50 in the series with HepG2 was above 30 µM; in the series on A549 [3] it was above 30 µM; in the series on Huh-7 [5] it was 12.7 µM; with MDA-MB-231, above 30 µM; in the series on MCF7, above 30 µM; with A549 [8], above 30 µM.
In the case of `CCCNCCCN1C(=O)c2cccc3cc(NC(=O)CN)cc(c23)C1=O`, the IC50 in the series on HepG2 is above 30 µM; in the series with A549 [3], above 30 µM; with Huh-7 [5] it was 10.1 µM; with MDA-MB-231, above 30 µM; with MCF7, above 30 µM; in the series with A549 [8], above 30 µM.
Consider `CCCNCCCNCCCN1C(=O)c2cccc3cc(NC(=O)CN)cc(c23)C1=O`, for which the IC50 in the series with HepG2 is above 30 µM; with A549 [3], above 30 µM; with Huh-7 [5], 7.54 µM; in the series on MDA-MB-231, above 30 µM; with MCF7, above 30 µM; in the series on A549 [8], above 30 µM.
Regarding `CCCNCCCNCCCNCCCN1C(=O)c2cccc3cc(NC(=O)CN)cc(c23)C1=O`, the IC50 was above 30 µM with HepG2; above 30 µM in the series on A549 [3]; 14.9 µM in the series on Huh-7 [5]; above 30 µM in the series on MDA-MB-231; above 30 µM in the series with MCF7; above 30 µM in the series on A549 [8].
With `CCCNCCCNCCCNCCCN1C(=O)c2cccc3c(NC(=O)CN)ccc(c23)C1=O`, the half-inhibitory concentration (IC50) is above 30 µM in the series on HepG2; above 30 µM with A549 [3]; 5.39 µM in the series with Huh-7 [5]; above 30 µM in the series on MDA-MB-231; above 30 µM in the series on MCF7; above 30 µM with A549 [8].
`NCCCCNCCCN1C(=O)c2cccc3cc(NC(=O)CN)cc(c23)C1=O`: the IC50 in the series on HepG2, in the series with A549 [3], in the series with Huh-7 [5], in the series with MDA-MB-231, in the series with MCF7 and with A549 [8] was above 30 µM in each case.
Regarding `NCCCCNCCCCN1C(=O)c2cccc3cc(NC(=O)CN)cc(c23)C1=O`, the IC50 in the series with HepG2 is above 30 µM; in the series with A549 [3], above 30 µM; with Huh-7 [5] it was 28.7 µM; in the series on MDA-MB-231, above 30 µM; in the series on MCF7 it was above 30 µM; in the series on A549 [8], above 30 µM.

The values above are taken from ChEMBL document CHEMBL4842322, “A naphthalimide-polyamine conjugate preferentially accumulates in hepatic carcinoma metastases as a lysosome-targeted antimetastatic agent” (Eur J Med Chem, 2021).
